Results published in patent US12606529B2, “Sulfur and amide tropolone inhibitors of nucleotidyl transferases and uses therefor” (Saint Louis University, priority 2019, dated 2026).
≈ marks a conversion by molar mass, not a printed value. Like-named read-outs stand apart in the source and are kept apart here.

Key:
[1] = in vitro; settings: human, HepDES19 cells
[2] = test system: HepDES19 cells; settings: Table 2 amides, MTT
[3] = test system: HSV-1; assay: Anti-HSV-1 replication assay (Vero cells, plaque titer); format: cell-based, herpes simplex virus 1; settings: for log reduction at 5 µM / log reduction at 1 µM / log reduction at 0.33 µM: Human alphaherpesvirus 1, Vero; for log reduction at 5 µM: compound at 5 μM, read-out: HSV-1 suppression 5 μM; for log reduction at 1 µM: compound at 1 μM, read-out: HSV-1 suppression 1 μM; for log reduction at 0.33 µM: compound at 0.33 μM, read-out: HSV-1 suppression 0.33 μM
[4] = test system: HBV replication; assay: HBV replication inhibition in HepDES19 cells (strand-preferential qPCR); settings: for EC50: Hepatitis B virus; for SI (CC50/EC50): cytotoxicity CC50 over HBV replication EC50
Protocol: Cells used for toxicity and HBV studies.
HBV replication inhibition studies. HepDES19 cells were seeded in 96-well plates at 4×10^4 cells per well in the absence of tetracycline. Test compounds in a final DMSO concentration of 1% were applied to cells 48 hours after induction of HBV replication and cells were incubated with compounds for 72 hours. Cells were washed in 200 μL of phosphate buffered saline (PBS) and lysed in 150 μL of core lysis buffer (10 mM Tris pH 7.4, 1% Tween20, 150 mM NaCl). Cells were incubated at room temperate on an orbital shaker at 350 rpm for 40 minutes. Cell lysate was transferred to a 96 well polymerase chain reaction (PCR) plate and centrifuged at 3300×g for 5 minutes. The supernatant (50 μL) from the cell lysate was transferred to a 96-well PCR plate and mixed with 20 units of micrococcal nuclease and 100 μM CaCl2. The lysate was incubated for 1 hour at 37° C., and then the nuclease was inactivated at 70° C. for ten minutes. Qiagen protease (0.005 Anson units) was added to the lysate and the mixture was incubated overnight. Qiagen protease was then inactivated at 95° C. for ten minutes.
The crude lysate was used as the template for strand-preferential quantitative polymerase chain reaction (q-PCR) analysis. Quantitative PCR was performed with 40 cycles of 95° C. for 15 s and 60° C. for 1 minute employing the Kappa Probe Force universal PCR master mix.

[5] = test system: C. neoformans var. grubii, KN99; assay: C. neoformans growth inhibition assay (limiting dilution); format: cell-based, Cryptococcus neoformans
How it was run: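 Starting OD650 0.001 in YNB (0.2% dextrose, 50 mM MOPS, pH 7.0) with 1% DMSO; static incubation 48 h at 35° C, then shaken and read at OD650. Growth expressed as percent of DMSO control; MIC is the lowest concentration giving 80% inhibition, triplicates over at least two independent assays.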

[6] = biological target: T1, human RNaseH1 (Homo sapiens, UniProt O60930); assay: Biochemical inhibition of human RNaseH1 activity; settings: for SIApparent (huRH1 IC50/EC50): huRH1 IC50 over HBV replication EC50
T1 sequence (O60930 1-286): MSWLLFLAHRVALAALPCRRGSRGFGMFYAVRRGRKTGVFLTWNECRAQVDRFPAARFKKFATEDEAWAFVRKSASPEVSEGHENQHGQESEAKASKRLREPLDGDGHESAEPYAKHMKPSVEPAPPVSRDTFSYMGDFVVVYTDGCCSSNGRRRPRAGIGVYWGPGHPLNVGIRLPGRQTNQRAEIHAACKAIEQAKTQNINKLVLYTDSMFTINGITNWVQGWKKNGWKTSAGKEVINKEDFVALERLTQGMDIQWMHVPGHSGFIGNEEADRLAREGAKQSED
How it was run: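 Human enzyme (0.3 μg) with 100 nM RNA:DNA molecular-beacon substrate, 50 mM HEPES pH 8.0, 100 mM NaCl, 2 mM TCEP, compounds 0 to 500 μM, 5% DMSO; started with 5 mM MgCl2, fluorescence read at 37° C. HBV enzyme (C-terminally truncated MBP-HRHgtCΔ5) run in FRET format, monitored 90 min at 37° C., initial rates calculated.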

[7] = biological target: HBV RNaseH (MBP-HRHgtCΔ5) (Hepatitis B virus genotype C subtype ayr, UniProt Q69028); assay: Biochemical inhibition of HBV RNaseH (FRET-based RNaseH assay); set-up: a genotype C isolate which lacks the C-terminal 35 amino acids of the HBV RNaseH domain that are predicted to be unstructured; made in house; settings: HBV RNaseH IC50 (μM), Table 2 amides
Sequence of HBV RNaseH (MBP-HRHgtCΔ5) (Q69028 691-808, stated change not applied): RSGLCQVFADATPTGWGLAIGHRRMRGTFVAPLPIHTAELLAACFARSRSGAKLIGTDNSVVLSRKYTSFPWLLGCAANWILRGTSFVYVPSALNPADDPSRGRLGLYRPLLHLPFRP
Protocol: Biochemical inhibition of human RNaseH1 activity. Quantitative inhibition of the human RNaseH1 in the biochemical assays was assessed using a molecular beacon assay as described previously (Edwards et al., 2017). Recombinant human RNaseH 1 (0.3 μg) was incubated with 100 nM RNA:DNA substrate, 50 mM HEPES pH 8.0, 100 mM NaCl, 2 mM Tris(2-carboxyethyl)phosphine hydrochloride (TCEP), 0.05% Tween20, 5 units of RNaseOut, test compounds (0 to 500 μM), and 5% DMSO in a 100 μL reaction volume. The substrate was formed by annealing a complementary RNA oligonucleotide to a hairpin DNA oligonucleotide to hold the hairpin DNA oligonucleotide in an open conformation. The DNA oligonucleotide has a 5′ fluorescein reporter and a 3′ black hole quencher. […] Reactions were initiated with 5 mM MgCl2 and fluorescence was read using a Synergy HTS multi-mode plate reader at 37° C. […] Quantitative inhibition of the human RNaseH1 in biochemical assays was assessed using a FRET-based RNaseH assay under conditions previously reported for an RNaseH molecular beacon assay (Edwards et al., 2017). […] Cleavage of the RNA strand released the fluorescein from quenching, increasing fluorescence. Reactions were monitored for 90 min at 37° C. in a plate reader and initial reaction rates were calculated. […]

[8] = test system: HSV-2; assay: Anti-HSV-2 replication assay (Vero cells, plaque titer); format: cell-based, herpes simplex virus 2; settings: Table 3 sulfur compounds; compound at 5 μM
Protocol: HSV strains and cells used for HSV studies. […] HSV-1 and HSV-2 are de-identified clinical isolates from the Saint Louis University Hospital. Stocks were prepared after a single passage in cell culture and were titered by standard plaque assay (Knipe and Spang, 1982). Wild-type HSV-2 was laboratory strain 333. The TK-deficient mutant of HSV-2 strain 333, ΔTK−, contains a 180-bp KpnI-KpnI deletion in the UL23 open reading frame that abrogates TK activity (McDermott, et al, 1984). ΔTK− was the generous gift of Jim Smiley. Virus stocks were grown and titered on Vero cells (Morrison and Knipe, 1996).
Anti-HSV-1 and —HSV-2 replication assay. Compounds to be screened were diluted in PBS supplemented to contain 2% newborn calf serum and 1% glutamine and added in 100 μL volume to confluent cell monolayers in 24-well cluster plates Immediately thereafter HSV-1 and HSV-2, diluted in the supplemented PBS medium, were added to the wells in 50 μl volume such that the final concentration of compound was 50 μM and 5 μM and the multiplicity of infection was 0.1. The plates were incubated at 37° C. for 1 hour and then virus-containing inoculum was removed and the wells were washed once in PBS. Compounds, diluted to 50 μM and 5 μM in DMEM supplemented to contain 2% newborn calf serum and 1% each penicillin/streptomycin, were added at 0.5 mL/well. Plates were incubated at 37° C. an additional 23 hr, and then the plates were visually inspected through a phase contrast microscope for cytopathic effect, and for toxic effect. […] The entire contents of each well were collected by scraping. Samples were frozen at −80° C., and then subsequently thawed, sonicated, and infectious virus titer was determined by standard plaque assay on Vero cell monolayers. Because the compounds were dissolved at 10 mM in 100% DMSO, equivalent dilutions of DMSO were added to additional wells as a control for effects of the diluent. Each experiment was repeated once.

[9] = Table 2 amides, values separated by / are repeats
[10] = HepDES19, 72 h, Table 2 amides, HBV replication, HepDES19 cells, plus-polarity DNA, 72 h
[11] = Table 2 amides, 48 h, 35° C., tested 0.19 to 50 μM, read-out: C. neoformans MIC80
[12] = Table 3 sulfur compounds, read-out: Hu RNaseH IC50
[13] = CC50, Table 3 sulfur compounds, MTT
[14] = Table 3 sulfur compounds, values separated by / are repeats
[15] = HepDES19, read-out: HBV EC50, Table 3 sulfur compounds, HBV replication, HepDES19 cells
[16] = Cryptococcus neoformans, 48 h, Table 3 sulfur compounds, 48 h, 35° C., read-out: C. neoformans MIC80
[17] = Table 2 amides, read-out: HuRH1 IC50
[18] = Cryptococcus neoformans, 48 h, Table 2 amides, 48 h, 35° C., tested 0.19 to 50 μM, read-out: C. neoformans MIC80

Compound	log reduction at 5 µM [3, 9]	EC50 [4, 10] [µM]	IC50 [6, 12] [µM]	CC50 at 24 h [1, 13] [µM]	log reduction at 5 µM [3, 14]	EC50 [4, 15] [µM]	MIC80 [5, 16] [µM]	log reduction at 1 µM [3, 14]	IC50 [6, 17] [µM]	CC50 at 24 h ([1]; CC50 (μM), Table 2 amides, MTT) [µM]	MIC80 [5, 18] [µM]	other results
Cc1cc(O)c(=O)c(O)cc1C(=O)N1CCNCC1 [compound 391]	0.29	0.46 ± 0.2	–	–	–	–	–	–	–	–	–	CC50 at 24 h ([1]; CC50): > 20 µM; CC50 [2]: 37.5 ± 4.8 µM; MIC80 [5, 11]: 40 µM (≈ 10.6 µg/mL)
Cc1cc(O)c(=O)c(O)cc1C(=O)N1CCNCC1 [compound 404]	–	–	–	–	–	–	–	–	–	–	–	CC50 [2]: 4.5 ± 1.4 µM; Reduction of HSV-1 titers / suppression of HSV-1 replication at 5 μM ([3]; 5 μM, plaque forming units (PFU)/ml): undetectable; MIC80 [5, 11]: 9 µM (≈ 2.38 µg/mL)
O=c1c(O)cccc(S)c1O [compound 701]	–	–	46	63.9	0.94	7.6	5 (≈ 0.851 µg/mL)	–	–	–	–	–
O=c1c(O)c(SCc2ccccc2)ccc(SCc2ccccc2)c1O [compound 703]	–	–	49.6	8.2	5.88	10.6	6.75 (≈ 2.58 µg/mL)	4.56	–	–	–	–
O=c1c(O)cccc(SCCc2ccccc2)c1O [compound 704]	–	–	24.7	21.6	5.72	52	1.4 (≈ 0.384 µg/mL)	0.06	–	–	–	EC50 ([4]; HepDES19, read-out: EC50 against HBV replication): 52 µM
O=c1c(O)cccc(S(=O)(=O)Cc2ccccc2)c1O [compound 705]	–	–	135	8.4	3.55	2.76	50 (≈ 14.6 µg/mL)	0.19	–	–	–	–
Cc1cc(O)c(=O)c(O)cc1C(=O)Nc1ccc(F)nc1 [compound 707]	-0.18	0.54	–	–	–	–	–	–	148 ± 22.3	19.4 ± 8.4	36 (≈ 10.4 µg/mL)	SIApparent (huRH1 IC50/EC50) ([6]; Table 2 amides): 277; SI (CC50/EC50) ([4]; Table 2 amides): 36.2
Cc1cc(O)c(=O)c(O)cc1C(=O)Nc1ccc(F)cc1F [compound 711]	0.32	0.75 ± 0.3	–	–	–	–	–	–	184	4.6 ± 0.8	4.5 (≈ 1.38 µg/mL)	SIApparent (huRH1 IC50/EC50) ([6]; Table 2 amides): 247; EC50 against HBV replication [4]: sub-micromolar; SI (CC50/EC50) ([4]; Table 2 amides): 10.2
Cc1cc(O)c(=O)c(O)cc1C(=O)N1CCSC1 [compound 712]	0.36	0.77 ± 0.5	–	–	–	–	–	–	116 ± 67.6	6.4 ± 0.8	18 (≈ 4.81 µg/mL)	–
Cc1cc(O)c(=O)c(O)cc1C(=O)NCc1ccc(OC(F)(F)F)cc1 [compound 804]	1.75	–	–	–	–	–	–	–	802 ± 397	30.1 ± 18	6.8 (≈ 2.51 µg/mL)	IC50 [7]: 285 ± 226 µM; log reduction at 0.33 µM ([3]; Table 2 amides): 0.191; log reduction at 1 µM [3, 9]: 0.292
Cc1ccc(Sc2cccc(O)c(=O)c2O)cc1 [compound 838]	–	–	100	18.6	5.33	17	1 (≈ 0.26 µg/mL)	0.05	–	–	–	HSV-2 suppression 5 μM [8]: 5.09 log10
O=c1c(O)cccc(Sc2cccc3ccccc23)c1O [compound 839]	–	–	201	35.1	3.21	50	17 (≈ 5.04 µg/mL)	-0.1	–	–	–	HSV-2 suppression 5 μM [8]: 4.2 log10
CCCCCCSc1cccc(O)c(=O)c1O [compound 840]	–	–	72.8	21.5	3.69	50	1 (≈ 0.254 µg/mL)	1.52	–	–	–	HSV-2 suppression 5 μM [8]: 5.59 log10; log reduction at 0.33 µM [3, 14]: 0.271; MIC80 ([5]; Cryptococcus neoformans, read-out: MIC80 against C. neoformans): ≤ 1 µM
Cc1cc(O)c(=O)c(O)cc1C(=O)N1CCN(C2CC2)CC1 [compound 871]	-0.0192	1.15 ± 0.4	–	–	–	–	–	–	88.2 ± 43.3	36.6 ± 3.6	50 (≈ 15.2 µg/mL)	log reduction at 1 µM [3, 9]: -0.1
Cc1cc(O)c(=O)c(O)cc1C(=O)N1CCN(C(=O)C2COc3ccccc3O2)CC1 (stereo not shown) [compound 876]	0.273	0.7 ± 0.4	–	–	–	–	–	–	39.2 ± 40.6	9.2 ± 3.2	9 (≈ 3.84 µg/mL)	log reduction at 1 µM [3, 9]: -0.0739
